Experimental data reported in patent publication US11040954B1, “CXCR3 receptor agonists” (RECEPTOS LLC, priority 2016, dated 2021).

Biological target: T1, CXCR3 (Homo sapiens, UniProt P49682)
T1 construct: host or cells: CHO-K1 (cAMP Hunter CHOK1 CXCR3 Gi cell line)
T1 sequence (P49682 1-368): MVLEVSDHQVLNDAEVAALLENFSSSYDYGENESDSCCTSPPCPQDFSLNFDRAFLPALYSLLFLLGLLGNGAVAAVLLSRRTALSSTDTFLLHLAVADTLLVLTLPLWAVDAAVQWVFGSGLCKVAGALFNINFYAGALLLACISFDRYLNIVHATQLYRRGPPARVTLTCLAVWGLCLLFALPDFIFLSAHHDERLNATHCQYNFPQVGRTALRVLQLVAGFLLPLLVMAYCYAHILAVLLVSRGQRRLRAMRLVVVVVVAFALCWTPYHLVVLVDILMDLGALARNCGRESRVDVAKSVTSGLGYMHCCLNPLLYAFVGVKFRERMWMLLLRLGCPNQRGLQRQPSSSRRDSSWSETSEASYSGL
Test: CXCR3 cAMP agonist assay (cAMP Hunter CHOK1 CXCR3 Gi cell line, forskolin-stimulated, HitHunter cAMP detection)
Assay type: cell-based
Conditions: cAMP Hunter CHOK1 CXCR3 Gi cells, 20 μM forskolin, 30 minutes; read-out: Activity (CXCR3 cAMP agonist assay compound EC50)
How it was run: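 CHOK1 cells expressing human CXCR3 with Gi coupling, 50,000/well in suspension in HBSS/10 mM HEPES/0.1% BSA pH 7.4, were co-treated with 20 μM forskolin and compound (12-point, 0-10 μM, 1% DMSO) for 30 min. cAMP was read by enzyme-complementation luminescence; CXCL11 dose response set maximum efficacy.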

Cc1cc(NC(=O)[C@H](CCN)NC(=O)[C@@H]2Cc3ccccc3CN2C(=O)CCC(=O)N2CCN(C(=O)N(C)C)CC2)ccc1Cl [Compound 12-109]
EC50: 250 to 500 nM

CN1CCN(CC[C@H](NC(=O)[C@@H]2Cc3ccccc3CN2C(=O)CCC(=O)c2ccccc2)C(=O)Nc2ccc3c(c2)CCC3)CC1 [Compound 24-2]
EC50: 50 to 250 nM

Cc1ccc(NC(=O)C2(NC(=O)[C@@H]3Cc4ccccc4CN3C(=O)CCC(=O)c3ccccc3)CCNCC2)c(F)c1 [Compound 13-2]
EC50: 50 to 250 nM

Cc1ccc(NC(=O)[C@H](CCN)NC(=O)[C@@H]2Cc3ccccc3CN2C(=O)CCC(=O)c2ccccc2)c(OC(F)(F)F)c1 [Compound 13-7]
EC50: 50 to 250 nM

Cc1cc(NC(=O)[C@H](CCN)NC(=O)[C@@H]2Cc3ccccc3CN2C(=O)CCC(=O)N2CCC2)ccc1Cl [Compound 12-30]
EC50: 50 to 250 nM

CC1(C)CCCCN1C(=O)CCC(=O)N1Cc2ccccc2C[C@H]1C(=O)NC1(C(=O)Nc2ccc(Cl)c(Cl)c2F)CCNCC1 [Compound 12-135]
EC50: < 50 nM

Cc1cc(NC(=O)[C@@H](CCN)NC(=O)[C@@H]2Cc3ccccc3CN2C(=O)CCC(=O)N2CCCOCC2)ccc1Cl [Compound 12-21]
EC50: < 50 nM

Cc1cc(NC(=O)[C@H](CCN)NC(=O)[C@@H]2Cc3ccccc3CN2C(=O)CCC(=O)NCCC(F)(F)F)ccc1Cl [Compound 12-90]
EC50: 50 to 250 nM

Cc1ccc(NC(=O)[C@H](CCN)NC(=O)[C@@H]2Cc3ccccc3CN2C(=O)CCC(=O)c2ccccc2)c(Cl)c1 [Compound 2-36]
EC50: 250 to 500 nM

NCCCC[C@H](NC(=O)[C@@H]1Cc2ccccc2CN1C(=O)CCC(=O)c1ccccc1)C(=O)Nc1ccc(Cl)c(C(F)(F)F)c1 [Compound 1-18]
EC50: < 50 nM

O=C(CCC(=O)N1Cc2ccccc2C[C@H]1C(=O)N[C@@H](CCN1CCC(F)(F)CC1)C(=O)Nc1ccc(Cl)c(Cl)c1F)c1ccccc1 [Compound 23-2]
EC50: 50 to 250 nM

CCN(CC(C)(C)C)C(=O)CCC(=O)N1Cc2ccccc2C[C@H]1C(=O)N[C@@H](CCN)C(=O)Nc1ccc(Cl)c(Cl)c1F [Compound 15-40]
EC50: 50 to 250 nM

Cc1cc(NC(=O)[C@H](CCN)NC(=O)[C@@H]2Cc3ccccc3CN2C(=O)CCC(=O)N2C3CCC2CN(C)C3)ccc1Cl [Compound 12-105]
EC50: > 500 nM

Cc1cc(NC(=O)[C@H](CCN)NC(=O)[C@@H]2Cc3ccccc3CN2C(=O)CCC(=O)N2CCCC2c2ccccc2)ccc1Cl (stereo partly shown) [Compound 12-53]
EC50: < 50 nM

COc1c(NC(=O)[C@H](CCN)NC(=O)[C@@H]2Cc3ccccc3CN2C(=O)CCC(=O)c2ccccc2)ccc2c1CCCC2 [Compound 2-62]
EC50: 50 to 250 nM

Cc1cc(NC(=O)[C@H](CCN)NC(=O)[C@@H]2Cc3ccccc3CN2C(=O)CCC(=O)N2CCN(C)CC2)ccc1Cl [Compound 10-3]
EC50: < 50 nM

Cc1cc(NC(=O)[C@H](CCCNC(C)C)NC(=O)[C@@H]2Cc3ccccc3CN2C(=O)CCC(=O)c2ccccc2)ccc1Cl [Compound 8-5]
EC50: < 50 nM

Cc1cc(NC(=O)[C@H](CCN)NC(=O)[C@@H]2Cc3ccccc3CN2C(=O)CCC(=O)N2CCOC[C@@H]2C)ccc1Cl [Compound 12-27]
EC50: 50 to 250 nM

Cc1cc(NC(=O)[C@H](CCCC[N+](C)(C)C)NC(=O)[C@@H]2Cc3ccccc3CN2C(=O)CCC(=O)c2ccccc2)ccc1Cl [Compound 6-3]
EC50: 50 to 250 nM

Cc1cc(NC(=O)[C@H](CCN)NC(=O)[C@@H]2Cc3ccccc3CN2C(=O)CCC(=O)N2CCC(C)(C)CC2)ncc1Cl [Compound 12-159]
EC50: < 50 nM

Cc1cc(NC(=O)[C@H](CCC(N)=O)NC(=O)[C@@H]2Cc3ccccc3CN2C(=O)CCC(=O)c2ccccc2)ccc1Cl [Compound 3-13]
EC50: 50 to 250 nM

NCC[C@H](NC(=O)[C@@H]1Cc2ccc(F)cc2CN1C(=O)CCC(=O)N1CCCC12CCC2)C(=O)Nc1ccc(Cl)c(Cl)c1F [Compound 15-59]
EC50: < 50 nM
